Experimental findings from article PMC4596688, “Structural determinants of nuclear export signal orientation in binding to exportin CRM1” (eLife, 2015) are described below.

Where two headings read alike, the source gives them in different places.

For orientation: Kd means the free concentration of one partner at which half of the binding sites on the other are occupied at equilibrium, for simple one-to-one binding.

In test [1] the target is CRM1 (Homo sapiens, UniProt O14980). The test can be described thus: Competition differential bleaching assay monitored by microscale thermophoresis instrument (MBP-NES vs FITC-PKI^NES). In kind it is binding. The following applies: brackets = 68.3% confidence interval. The source says:
To first investigate whether features of the sequence such as spacings between hydrophobic residues and placement of the ΦXΦ motif are critical in determining directionality of NES binding, we reversed the sequence of the hRio2^NES ([…]) to generate hRio2^NES-R ([…]). We also reversed CPEB4^NES ([…]) to generate CPEB4^NES-R ([…]). Both reversed peptides match the class 1a NES pattern and were predicted to bind CRM1 like the PKI^NES, which is another class 1a NES. Binding affinities of NES peptides to CRM1 were measured in competition differential bleaching experiments using FITC-PKI^NES as a fluorescent probe, MBP-NESs as competitors and monitored with a microscale thermophoresis instrument (Figure 4, Figure 4—figure supplement 1). Wild-type NESs MBP-hRio2^NES and MBP-CPEB4^NES bind CRM1 with KDs of 2200 nM [1600,2900] and 590 nM [400,840], respectively (Figure 4B). The ranges in brackets represent the 68.3% confidence intervals as calculated using F-statistics and error-surface projection method ([Bevington and Robinson, 1992]). […] All of the NES peptides were also cloned into EYFP-NLS-NES fusions and tested for nuclear export activity in HeLa cells.
Differential bleaching was used as a parameter to monitor binding of MBP-NES proteins to CRM1. In short, we observed that the fluorophore reporter attached to PKI^NES (FITC) underwent a reproducible time-dependent bleaching when exposed to excitation light (Figure 4—figure supplement 2). Furthermore, this phenomenon was concentration-dependent, that is, the bleaching was accelerated when the FITC-PKI^NES probe was exposed to increasing concentrations of CRM1. […] The differential bleaching can be counteracted by titrating of mixture of FITC-PKI^NES and CRM1 with a known competitor, MBP-PKI^NES, which competes directly with the fluorescent probe for the NES binding groove in CRM1. A sigmoidal appearance of the binding and competition isotherms is observed when differential bleaching, quantified as the average fluorescence at a time after bleaching normalized by the averaged fluorescence just after the beginning of bleaching, is plotted vs titrant concentration in a semilog graph (see Figure 4).This illustrates that this bleaching behavior can be described as a two-state system where unbound probe and CRM1-bound probe bleach at different but specific rates, and that these quantities report on the populations of bound and unbound FITC-PKI^NES. A detailed description of the data-fitting procedures will be described in manuscript in preparation by C.A.B. For error reporting, we used F-statistics and error-surface projection method to calculate the 68.3% confidence intervals of the fitted data ([Bevington and Robinson, 1992]). While error reporting using the error surface projection method is relatively uncommon, the ranges more accurately represent the true confidence intervals given the observed noise in the performed set of experiments because they explicitly account for the ability of the fitting algorithm to compensate for fitting defects by modifying correlated parameters. Thus, they provide better evaluation of the fitted data than other, more commonly used methods (e.g., error estimations from the parametric variance-covariance matrix).
All proteins used were subjected to an extra gel filtration step and dialysis overnight in TB buffer with 15% glycerol to remove possible aggregation and ensures buffer matching. The FITC-PKI^NES peptide (FITC-[…]) was chemically synthesized by GenScript, NJ and dissolved in the TB buffer with 15% glycerol. For the direct titration, ^HsCRM1 was serially diluted from 40 μM to 1.2 nM and incubated with mixture of 120 μM ^ScRan-GTP and 40 nM FITC-PKI^NES in 1:1 vol to a total volume of 20 μl, and incubated for 1 hr in the dark at room temperature. […]

In test [2] the test system is human CRM1. The test can be described thus: In vitro CRM1-NES pull-down binding assay (immobilized GST-NES). The following applies: immobilized GST-PKI^NES mutants, purified CRM1 and RanGTP; 2.5 μM HsCRM1, 7.5 μM ScRanGTP, 30 min 4°C; Coomassie-stained SDS/PAGE. The protocol: After affinity purification, ^ScRan was loaded with GTP (incubated with molar excess of ethylenediaminetetraacetic acid (EDTA) for 30 min on ice followed by incubation with excess GTP and MgOAC for 30 min at room temperature) and then purified by ion exchange chromatography (HiTrap SP, GE Healthcare Life Sciences). NESs were cloned into the pGEX-TEV vector ([Chook and Blobel, 1999]), purified, and immobilized on glutathione Sepharose beads (GE Healthcare Life Sciences) in TB buffer described above containing 15% glycerol. 2.5 μM ^HsCRM1 and 7.5 μM ^ScRanGTP were added to ∼10 μg of immobilized GST-NESs in TB buffer in total volumes of 200 μl for 30 min at 4°C. Unbound proteins were washed extensively with TB buffer and bound proteins on the Sepharose beads were separated by sodium dodecyl sulfate polyacrylamide gel electrophoresis (SDS/PAGE) and visualized with Coomassie Blue staining. All binding assays were performed in triplicates. To compare the relative intensities of CRM1 bands to yield an estimate of binding activities of various NES mutants, SDS/PAGE gels were dried and scanned with an Epson V300 scanner and the images analyzed with ImageJ software. CRM1 band intensities were corrected for differences in GST-NESs band intensities and normalized to wild-type control intensity in each set of mutations. Corrected relative CRM1 band intensities were plotted as histograms with standard errors with GraphPad Prism.
To test putative minus NESs identified from the Dbase data set, 5 μM ^HsCRM1 with or without 15 μM ^ScRanGTP were used instead. Putative NESs that show no CRM1 binding were expressed in larger scale and purified by size-exclusion chromatography to assess their aggregation states. They were also subjected to intact mass determination by mass spectroscopy to ensure that the GST-NES proteins were not degraded.

The mark [3] stands for this setting: competition titration, MBP-NES 100 μM to 3 nM, 40 nM FITC-PKI^NES probe, 300 nM HsCRM1, 120 μM ScRan-GTP, mixed 1:1, TB buffer 15% glycerol, 0.05% Tween-20, 1.5 hr room temperature, triplicate titrations, read-out: KD (dissociation constant of NES binding to CRM1).
Setting [4] is: Figure 4—figure supplement 1, shorter hRio2^NES (without C-terminal lysine and glycine) and CPEB4^NES (without C-terminal methionine and arginine) constructs, competition differential bleaching as E1, read-out: KD of shorter NES constructs binding to CRM1.

CRM1, sequence (O14980 whole entry, other chains not shown): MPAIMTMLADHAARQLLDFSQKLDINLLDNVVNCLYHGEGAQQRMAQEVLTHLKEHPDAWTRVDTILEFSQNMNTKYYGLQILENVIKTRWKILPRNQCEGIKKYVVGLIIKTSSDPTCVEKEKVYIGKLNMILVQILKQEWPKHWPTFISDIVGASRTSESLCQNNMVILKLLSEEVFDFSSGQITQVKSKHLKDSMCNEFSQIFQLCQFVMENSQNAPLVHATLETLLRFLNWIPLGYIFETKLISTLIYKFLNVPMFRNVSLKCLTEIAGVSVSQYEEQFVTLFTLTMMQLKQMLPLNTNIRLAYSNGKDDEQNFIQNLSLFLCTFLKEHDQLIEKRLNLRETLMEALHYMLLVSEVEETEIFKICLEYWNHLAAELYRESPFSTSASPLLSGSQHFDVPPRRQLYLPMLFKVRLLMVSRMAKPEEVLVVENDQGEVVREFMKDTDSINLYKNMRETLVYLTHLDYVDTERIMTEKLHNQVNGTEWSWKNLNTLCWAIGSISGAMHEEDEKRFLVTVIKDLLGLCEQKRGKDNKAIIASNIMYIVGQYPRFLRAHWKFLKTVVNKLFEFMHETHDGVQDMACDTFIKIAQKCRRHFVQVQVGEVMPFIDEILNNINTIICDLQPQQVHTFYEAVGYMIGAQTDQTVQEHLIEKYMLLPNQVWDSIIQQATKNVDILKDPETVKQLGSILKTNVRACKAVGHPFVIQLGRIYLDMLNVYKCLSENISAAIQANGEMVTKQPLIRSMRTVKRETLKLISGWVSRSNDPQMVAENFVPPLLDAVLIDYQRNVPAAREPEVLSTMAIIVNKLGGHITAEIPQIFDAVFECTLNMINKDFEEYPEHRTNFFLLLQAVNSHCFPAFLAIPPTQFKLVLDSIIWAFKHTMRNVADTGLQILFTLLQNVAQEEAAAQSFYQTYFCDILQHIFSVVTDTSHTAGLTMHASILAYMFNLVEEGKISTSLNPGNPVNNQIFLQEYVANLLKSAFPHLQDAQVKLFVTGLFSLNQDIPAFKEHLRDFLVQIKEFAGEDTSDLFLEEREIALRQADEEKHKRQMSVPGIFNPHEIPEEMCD

Take GGSYGKIEELAQNFETMEFSR [hRio2^NES-R]: the Kd in test [1] (setting [3]) turned out to be 2.4 µM.
As to GGSYRMIDILSSELSHMDFTR [CPEB4^NES-R], in test [1] (setting [3]), the Kd worked out at 0.78 µM.
Regarding “GGSY^389RSFEMTEFNQALEEI^403 [hRio2^NES, nuclear export signal of hRio2 (residues 389-403), tested as MBP- or GST-fusion]”, the Kd in test [1] (setting [4]) stood at 1.4 µM; in test [1] (setting [3]) it was 2.2 µM.
As to “FDLNELALKLAGL [PKI^NES-Flip2, PKI^NES-Flip mutant with N-terminal FDL, GST-fusion]”, in test [2], the “CRM1 binding in pull-down assay” value is “graded increases in CRM1 binding”.
With “GGSY^379RTFDMHSLESSLIDI^393 [CPEB4^NES, nuclear export signal of CPEB4 (residues 379-393), tested as MBP- or GST-fusion]”, the Kd in test [1] (setting [4]) amounted to 1.6 µM; in test [1] (setting [3]), 0.59 µM.
On to “GGSYRSFDMNELALKLAGLD [PKI^NES-Flip3, PKI^NES-Flip mutant with N-terminal FDM, GST-fusion]”, for which the “CRM1 binding in pull-down assay” value in test [2] is given as “graded increases in CRM1 binding”.
Still for that read-out and setting: as for “IDLNELALKLAGL [PKI^NES-Flip1, PKI^NES with inverted LDI at the N-terminus, GST-fusion]”, the entry is “does not interact with CRM1”.
